Measured values published in patent US8729048B2, “Methods and materials for assessing responsiveness to PARP inhibitors and platinating agents” (Mayo Foundation for Medical Education and Research, priority 2011, dated 2014).

Columns and labels:
[1] = system: phospho-H2AX and phospho-DNA-PKcs foci in PEO1 cells; assay: Immunofluorescence / confocal foci in PEO1 cells; format: cell-based
Protocol: FIG. 2. DNA-PK is activated following PARP inhibitor exposure in PEO1 cells. (A) Western blots for poly(ADP-ribose) polymer (pADPr) and phosphorylation of DNA-PK substrates (DNA-PKcs autophosphorylation at Thr^2609 and Histone H2AX at Ser^139) in PEO1 cells following 72 hours exposure to increasing concentrations of ABT-888 (0, 0.625, 1.25, 2.5, 5, 10, 20, and 40 μM). Hsp90, total DNA-PKcs, and Histone H1 are used as loading controls. (B) Phosphorylation of DNA-PK substrates after treatment for 72 hours with diluent (0.2% DMSO, lanes 1 and 4), 500 nM DNA-PK inhibitor AZ12594248 (DNA-PKi, lanes 2 and 5), or 5 μM ATM inhibitor KU55933 (ATMi, lanes 3 and 6) alone (lanes 1-3) or in combination with 20 μM ABT-888 (lanes 4-6). (C) Quantitation of cells positive for phospho-H2AX foci in PEO1 and PEO4 cells, following treatment with DMSO, 500 nM DNA-PKi, 20 μM ABT-888 (ABT), ABT-888 and DNA-PKi, 50 μM Etoposide (Etop), or 5 Gy ionizing radiation (IR). Cells were exposed to ABT-888 and/or DNA-PKi for 72 hours, etoposide for 1 hour, or allowed to recover for 1 hour after IR. Results are reported as mean±SEM of 3 independent experiments. (D) Confocal images of PEO1 cells treated as in […]. Phospho-Ser^139-H2AX is shown in green, phospho-Thr^2609-DNA-PKcs in red, and Hoechst 33258 in blue.
FIG. 8. PARP inhibition induces phosphorylation of DNA-PKcs selectively in PEO1 cells. (A) Quantitation of PEO1 cells positive for phospho-Ser^2056 DNA-PKcs foci following 72 hours exposure to increasing concentrations of ABT-888. (B) Quantitation of PEO1 cells positive for phospho-Ser^2056 DNA-PKcs foci following 72 hours exposure to diluent (0.2% DMSO), 500 nM DNA-PKi, 5 μM ATMi alone (columns 1-3) or with 20 μM ABT-888 (columns 4-6). (C) Representative confocal images of PEO1 cells from (B). Phospho-H2AX is shown in green, phospho-Thr^2609 DNA-PKcs in red, and Hoechst 33258 in blue. Results in (A) and (B) are presented as means±SEM of 3 independent experiments.
FIG. 9. siRNA-mediated knockdown of NHEJ components reduces ABT-888 induced formation of phospho-H2AX foci. PEO1 cells, following siRNA-mediated knockdown of Ku80 (A) or Artemis (B), were exposed to either diluent (0.1% DMSO) or 20 μM ABT-888 for 72 hours, fixed, and stained for phospho-H2AX foci. Positive nuclei were defined as having >10 foci. Results are presented as means±SEM of 3 independent experiments. […]
Coverslips were then washed three times with PBS and incubated for 1 h with Alexa Fluor 488- and/or 568-conjugated secondary antibody (Invitrogen) diluted 1:1000. […] Phospho-H2AX positive cells (defined as having >10 foci/cell) were counted on a Zeiss Axioplan microscope. […] Quantitation and image processing were performed using the Zeiss Zen software package and Adobe Photoshop CS3.

PEO1 cells = assay: Cytogenetics, metaphase spreads, PEO1; format: cell-based
Protocol: FIG. 4. PARP inhibitor-induced chromosomal derangement and genomic instability is dependent on DNA-PK activity. (A) Representative images of metaphase spreads from cells treated with diluent (0.2% DMSO), 500 nM DNA-PKi, 2.5 μM ABT-888, or both ABT-888 and DNA-PKi for 72 hours. Chromosomal breaks are marked with arrowheads and radial structures are marked with asterisks. (B) Quantitation of data from (A) showing average radial chromosomes per cell (n=100 for each data point pooled from two separate experiments, error bars represent SEM). † indicate values that are zero. (C) Calculated mutagenesis frequency in BRCA2-mutant CAPAN1 cells after control treatment or exposure to ABT-888 with or without 250 nM DNA-PKi. Each bar represents the mean±SEM of 5-8 plates.
Cell harvest and metaphase slide preparation were performed for metaphase analysis as described elsewhere (Fletcher, Curr. Protoc. Hum. Genet., 2:Unit 10.13. (1994)). Fifty non-banded metaphases from each cell line were analyzed and scored for radial formations as well as major and minor breakage according to the International System of Human Cytogenetic Nomenclature. Images of cells with breakage were captured using a CytoVision Imaging System (Genetix; New Milton, UK).

Row | Structure (SMILES) | phospho-H2AX foci ([1]; 20 μM ABT-888, 72 hours) | DNA-PKcs autophosphorylation at Ser2056 ([1]; 72 hours) | ABT-888 induced phospho-H2AX foci after downregulation of Ku80 or Artemis ([1]; siRNA knockdown, 20 μM ABT-888, 72 hours) | chromosome breaks and aberrant radial structures (PEO1 cells; 2.5 μM ABT-888, 72 hours) | effect on ABT-888-induced formation of foci and phosphorylation of DNA-PKcs ([1]; 500 nM DNA-PKi with 20 μM ABT-888, 72 hours) | effect on ABT-888-induced chromosome breaks and radial structures (PEO1 cells; 500 nM DNA-PKi with 2.5 μM ABT-888, 72 hours)
1 | C[C@]1(c2nc3c(C(N)=O)cccc3[nH]2)CCCN1 [ABT-888] | induced phospho-H2AX foci | increased | reduced ABT-888 induced phospho-H2AX foci | induced the formation of chromosome breaks and aberrant radial structures | – | –
2 | CCN1CCN(CC(=O)Nc2ccc(-c3cccc4c(=O)cc(N5CCOCC5)oc34)c3sc4ccccc4c23)CC1 [AZ 12594248] | – | – | – | – | reduced | substantially diminished this effect
